Source: US20060100170A1, “Isopycnic pharmaceutical formulation” (Agouron Pharmaceuticals, Inc., priority 2004, published 2006)

Experiments:
[1] = Drug depot below Tenon's capsule vs below the conjunctiva, retinal drug concentration; format: in vivo, New Zealand White rabbits; settings: depot on outer surface of the sclera below Tenon's capsule; measured the day after the injection; rabbit eyes
From the text: The sclera and Tenon's capsule define the exterior surface of the globe of the eye. For treatment of ARMD, CNV, retinopathies, retinitis, uveitis, cystoid macular edema (CME), glaucoma, and other diseases or conditions of the posterior segment of the eye, it is preferable to dispose a depot of a specific quantity of an ophthalmically acceptable pharmaceutically active agent directly on the outer surface of the sclera and below Tenon's capsule. In addition, in cases of ARMD and CME it is most preferable to dispose the depot directly on the outer surface of the sclera, below Tenon's capsule, and generally above the macula. In a study using New Zealand White rabbits, a drug depot of 4,9(11)-Pregnadien-17α,21-diol-3,20-dione-21-acetate, an angiostatic steroid available from Steraloids, Inc. of Wilton, N.H., was disposed directly on the outer surface of the sclera, below the Tenon's capsule, and slightly posterior of the equator of the rabbit eyes. […] Given the fact that the Tenon's capsule of a New Zealand White rabbit is very thin, these beneficial results are highly unexpected. It is important to note that Tenon's capsule of the human eye is also very thin. […]

[2] = Sucrose effect on content uniformity in the ready to use (RTU) composition; format: physicochemical; settings: ready to use composition made with sucrose from different vendors, FIG. 2
From the text: The concentrated sterile aqueous composition preferably comprises sucrose. The concentrated sterile aqueous composition comprises sucrose in an amount sufficient to form a stable aqueous composition of pharmaceutical agent represented by formula 1, typically about 40 to 80 weight percent sucrose based on the total weight of the composition. The concentrated sterile aqueous composition comprises sucrose in an amount ranging from a lower limit of 40, 45, 50, 55 or 60 or 65 weight percent, based on the total weight of the composition, to an upper limit of 70 or 75 or 80 weight percent, based on the total weight of the composition, with ranges from any upper limit to any lower limit being contemplated.
FIG. 2 illustrates the sucrose effect on content uniformity in the ready to use (RTU) composition.
The vertical bars represent 95% Confidence Interval.

[3] = Stability of the drug substance to light, room temperature and irradiation; format: physicochemical
From the text: The pharmaceutical agent is stable following gamma irradiation at 25 kGy and is stable following e-beam irradiation at 25 kGY. The particle size distribution, calculated by means well known in the art, following jet-milling (in microns) is as follows: […]

[4] = Particle size distribution following jet-milling; format: physicochemical
From the text: The pharmaceutical agent is stable following gamma irradiation at 25 kGy and is stable following e-beam irradiation at 25 kGY. The particle size distribution, calculated by means well known in the art, following jet-milling (in microns) is as follows:
d10=0.5; d50=1.5; and d90=3.5; wherein for example, d50 represents 50% of the pharmaceutical agent is 1.5 microns or less in size.

## CC(=O)OCC(=O)[C@@]1(O)CC[C@H]2[C@@H]3CCC4=CC(=O)CC[C@]4(C)C3=CC[C@@]21C [4,9(11)-Pregnadien-17α,21-diol-3,20-dione-21-acetate]
[1]
  concentration of the angiostatic steroid, averaged over the entire retina, relative to a depot below the conjunctiva but above the Tenon's capsule: about ten times greater

## OC[C@H]1O[C@@](CO)(O[C@H]2O[C@H](CO)[C@@H](O)[C@H](O)[C@H]2O)[C@@H](O)[C@@H]1O [Sigma, S3929 Lot 101K0105, sucrose]
[2]
  content uniformity: best content uniformity

## Cc1cc(C(=O)Nc2cc(Nc3ccc4c(/C=C/c5ccccn5)n[nH]c4c3)ccc2F)n(C)n1 [pharmaceutical agent 1]
[3]; drug substance
  light sensitivity: light insensitive
[3]; e-beam irradiation at 25 kGY
  stability following e-beam irradiation: stable
[3]; gamma irradiation at 25 kGy
  stability following gamma irradiation: stable
[3]; room temperature
  stability at room temperature: stable
[4]
  particle size d10: 0.5 microns
  particle size d50: 1.5 microns
  particle size d90: 3.5 microns
